Measurements published in PubChem BioAssay (NCI).
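Growth conditions: 96-well plates. Treatment: test compound, 48 hours, 5 concentrations. Analysis: linear interpolation between bracketing concentrations; unreached endpoints set to highest concentration. GI50: concentration for 50% inhibition of growth. Definition used: TGI = concentration required for complete inhibition of growth.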

Experiments:
Assay in all cases: NCI-60 cell line screen, 48 h
HCC-2998 colon = tested on: HCC-2998 colon
SF-268 CNS = tested on: SF-268 CNS
DU-145 prostate = tested on: DU-145 prostate
OVCAR-5 ovarian = tested on: OVCAR-5 ovarian
TK-10 renal = tested on: TK-10 renal
CAKI-1 renal = tested on: CAKI-1 renal
SK-MEL-5 melanoma = tested on: SK-MEL-5 melanoma
SK-OV-3 ovarian = tested on: SK-OV-3 ovarian
HOP-62 NSCLC = tested on: HOP-62 NSCLC
SNB-75 CNS = tested on: SNB-75 CNS
NCI-H522 lung = tested on: NCI-H522 lung
ACHN renal = tested on: ACHN renal
U251 CNS = tested on: U251 CNS
NCI-H226 lung = tested on: NCI-H226 lung
UACC-62 melanoma = tested on: UACC-62 melanoma
MCF7 breast = tested on: MCF7 breast
HCT-15 colon = tested on: HCT-15 colon
UACC-257 melanoma = tested on: UACC-257 melanoma
HT29 colon = tested on: HT29 colon
NCI-H460 lung = tested on: NCI-H460 lung
SW-620 colon = tested on: SW-620 colon
MDA-MB-468 breast = tested on: MDA-MB-468 breast
HS 578T breast = tested on: HS 578T breast
NCI-H23 lung = tested on: NCI-H23 lung
SK-MEL-2 melanoma = tested on: SK-MEL-2 melanoma
A498 renal = tested on: A498 renal
RXF 393 renal = tested on: RXF 393 renal
SF-539 CNS = tested on: SF-539 CNS
M14 melanoma = tested on: M14 melanoma
RPMI-8226 leukemia = tested on: RPMI-8226 leukemia
SR leukemia = tested on: SR leukemia
A549 NSCLC = tested on: A549 NSCLC
MDA-MB-435 = tested on: MDA-MB-435
OVCAR-8 ovarian = tested on: OVCAR-8 ovarian
MDA-MB-231 breast = tested on: MDA-MB-231 breast
MALME-3M melanoma = tested on: MALME-3M melanoma
MOLT-4 leukemia = tested on: MOLT-4 leukemia
HL-60(TB) leukemia = tested on: HL-60(TB) leukemia
HCT-116 colon = tested on: HCT-116 colon
KM12 colon = tested on: KM12 colon
UO-31 renal = tested on: UO-31 renal
K-562 leukemia = tested on: K-562 leukemia
HOP-92 NSCLC = tested on: HOP-92 NSCLC
PC-3 prostate = tested on: PC-3 prostate
SNB-19 CNS = tested on: SNB-19 CNS
OVCAR-4 ovarian = tested on: OVCAR-4 ovarian
CCRF-CEM leukemia = tested on: CCRF-CEM leukemia
IGROV1 ovarian = tested on: IGROV1 ovarian
EKVX NSCLC = tested on: EKVX NSCLC
NCI/ADR-RES ovarian = tested on: NCI/ADR-RES ovarian
SF-295 CNS = tested on: SF-295 CNS
SN12C renal = tested on: SN12C renal
SK-MEL-28 melanoma = tested on: SK-MEL-28 melanoma
OVCAR-3 ovarian = tested on: OVCAR-3 ovarian
T-47D breast = tested on: T-47D breast
COLO 205 colon = tested on: COLO 205 colon
LOX IMVI melanoma = tested on: LOX IMVI melanoma

## COc1ccc(-c2nc3ccc(-c4nnc(SCC(=O)Nc5ccc(/C(C)=N\O)cc5)o4)cc3[nH]2)cc1
HCC-2998 colon
  GI50: 50.8 µM
  TGI: > 100 µM
SF-268 CNS
  GI50: 4.38 µM
  TGI: 23.1 µM
DU-145 prostate
  GI50: 14.8 µM
  TGI: 31.8 µM
OVCAR-5 ovarian
  GI50: 19.9 µM
  TGI: 41 µM
TK-10 renal
  GI50: 19.8 µM
  TGI: 37.5 µM
CAKI-1 renal
  GI50: 5.93 µM
  TGI: 25 µM
SK-MEL-5 melanoma
  GI50: 1680 nM
  TGI: 3.66 µM
SK-OV-3 ovarian
  GI50: 12.2 µM
  TGI: 28.8 µM
HOP-62 NSCLC
  GI50: 22.9 µM
  TGI: > 100 µM
SNB-75 CNS
  GI50: 2800 nM
  TGI: 14.9 µM
NCI-H522 lung
  GI50: 6.37 µM
  TGI: 23 µM
ACHN renal
  GI50: 13 µM
  TGI: 35.2 µM
U251 CNS
  GI50: 4.3 µM
  TGI: 20.4 µM
NCI-H226 lung
  GI50: 11.7 µM
  TGI: 33.2 µM
UACC-62 melanoma
  GI50: 3.2 µM
  TGI: 12 µM
MCF7 breast
  GI50: 8.61 µM
  TGI: 30.9 µM
HCT-15 colon
  GI50: > 100 µM
  TGI: > 100 µM
UACC-257 melanoma
  GI50: 4.31 µM
  TGI: 17.2 µM
HT29 colon
  GI50: 13.8 µM
  TGI: 35.6 µM
NCI-H460 lung
  GI50: 15 µM
  TGI: 53 µM
SW-620 colon
  GI50: 26.1 µM
  TGI: 87.6 µM
MDA-MB-468 breast
  GI50: 6.35 µM
  TGI: 19.3 µM
HS 578T breast
  GI50: 2750 nM
  TGI: 8.15 µM
NCI-H23 lung
  GI50: 11 µM
  TGI: 33.9 µM
SK-MEL-2 melanoma
  GI50: 5.27 µM
  TGI: 17.8 µM
A498 renal
  GI50: 22.7 µM
  TGI: 37.2 µM
RXF 393 renal
  GI50: 2030 nM
  TGI: 5.18 µM
SF-539 CNS
  GI50: 2150 nM
  TGI: 6.35 µM
M14 melanoma
  GI50: 3.05 µM
  TGI: > 100 µM
RPMI-8226 leukemia
  GI50: 4 µM
  TGI: > 100 µM
SR leukemia
  GI50: > 100 µM
  TGI: > 100 µM
A549 NSCLC
  GI50: 14.1 µM
  TGI: 35.6 µM
MDA-MB-435
  GI50: 4 µM
  TGI: 18.1 µM
OVCAR-8 ovarian
  GI50: 7.7 µM
  TGI: 44.6 µM
MDA-MB-231 breast
  GI50: 3.83 µM
  TGI: 13.4 µM
MALME-3M melanoma
  GI50: 1690 nM
  TGI: 3.95 µM
MOLT-4 leukemia
  GI50: 9.01 µM
  TGI: > 100 µM
HL-60(TB) leukemia
  GI50: 19.5 µM
  TGI: > 100 µM
HCT-116 colon
  GI50: 3.31 µM
  TGI: > 100 µM
KM12 colon
  GI50: 10.8 µM
  TGI: > 100 µM
UO-31 renal
  GI50: 33.5 µM
  TGI: > 100 µM
K-562 leukemia
  GI50: 3.68 µM
  TGI: > 100 µM
HOP-92 NSCLC
  GI50: 4.14 µM
  TGI: 19.7 µM
PC-3 prostate
  GI50: 3.05 µM
  TGI: 10.8 µM
SNB-19 CNS
  GI50: 13.1 µM
  TGI: 28.3 µM
OVCAR-4 ovarian
  GI50: 20.9 µM
  TGI: 91.7 µM
CCRF-CEM leukemia
  GI50: 7.22 µM
  TGI: > 100 µM
IGROV1 ovarian
  GI50: 12 µM
  TGI: 24.3 µM
EKVX NSCLC
  GI50: 17.1 µM
  TGI: 48.8 µM
NCI/ADR-RES ovarian
  GI50: > 100 µM
  TGI: > 100 µM
SF-295 CNS
  GI50: 14.2 µM
  TGI: 32.8 µM
SN12C renal
  GI50: 11.6 µM
  TGI: 28 µM
SK-MEL-28 melanoma
  GI50: 2050 nM
  TGI: 4.03 µM
OVCAR-3 ovarian
  GI50: 12.7 µM
  TGI: 38.1 µM
T-47D breast
  GI50: 10 µM
  TGI: 34.8 µM
COLO 205 colon
  GI50: 26.2 µM
  TGI: > 100 µM
LOX IMVI melanoma
  GI50: 5.69 µM
  TGI: 19.4 µM
